Laboratory results: patent US9695155B2, “Herbicidal substituted pyrimidinyloxy benzene compounds” (E. I. DU PONT DE NEMOURS AND COMPANY, priority 2013, dated 2017)

What was measured:
[1] = tested on: yellow nutsedge; assay: Test C postemergence; assay type: in vivo, Cyperus esculentus; settings: for Plant response rating, Nutsedge, Yellow: Postemergence
Outline: (§1)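 Rated visually on 0–100 (100 = complete control) after 13–15 days under glass. Treatments went onto freshly seeded loam/sand soil or onto emerged plants at the 1- to 4-leaf stage, using a surfactant-containing solvent formulation.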

[2] = tested on: lambsquarters; assay: Test C postemergence; assay type: in vivo, Chenopodium album; settings: for Plant response rating, Lambsquarters: Postemergence
Outline: as §1

[3] = tested on: giant foxtail; assay: Test C postemergence; assay type: in vivo, Setaria faberii; settings: for Foxtail, Giant plant response rating / Plant response rating (0 to 100), Foxtail, Giant: postemergence; for Foxtail, Giant plant response rating: visual rating; for Foxtail, Giant plant response rating / Plant response rating, Foxtail, Giant: scale 0 to 100 (0 no effect, 100 complete control); for Plant response rating, Foxtail, Giant: Postemergence
Outline: as §1

[4] = tested on: barnyardgrass; assay: Test B flooded paddy test; assay type: in vivo, Echinochloa crus-galli; settings: Flood, 250 g ai/ha; 0 to 100 scale where 0 is no effect and 100 is complete control
Outline: (§2)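 Post-emergence paddy-water application at the 2-leaf stage, with 3 cm flood kept for the whole test. Response was judged visually relative to controls after 13 to 15 greenhouse days, 0 indicating no effect and 100 complete control.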

[5] = tested on: barnyardgrass; assay: Test A postemergence; assay type: in vivo, Echinochloa crus-galli
Outline: (§3)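 Injury scores run from 0, no effect, to 100, complete control, judged by eye against untreated plants roughly 10 days after treatment. Chemicals carried a surfactant in a non-phytotoxic solvent and went onto loam–sand soil preemergence or onto one- to two-leaf seedlings postemergence.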

[6] = tested on: rice; assay: Test B flooded paddy test; assay type: in vivo, Oryza sativa; settings: Flood, 250 g ai/ha; 0 to 100 scale where 0 is no effect and 100 is complete control
Outline: as §2

[7] = tested on: pigweed; assay: Test A postemergence; assay type: in vivo, Amaranthus retroflexus
Outline: as §3

[8] = tested on: barnyardgrass; assay: Test C postemergence; assay type: in vivo, Echinochloa crus-galli; settings: for Barnyardgrass plant response rating / Plant response rating (0 to 100), Barnyardgrass: postemergence; for Barnyardgrass plant response rating: visual rating; for Barnyardgrass plant response rating / Plant response rating, Barnyardgrass: scale 0 to 100 (0 no effect, 100 complete control); for Plant response rating, Barnyardgrass: Postemergence
Outline: as §1

[9] = tested on: wild oat; assay: Test C postemergence; assay type: in vivo, Avena fatua; settings: for Plant response rating, Oat, Wild: Postemergence
Outline: as §1

[10] = tested on: large (Lg) crabgrass; assay: Test A preemergence; assay type: in vivo, Digitaria sanguinalis; settings: for Crabgrass, Large plant response rating: 0 to 100 scale, 0 no effect, 100 complete control, approx. 10 days
Outline: as §3

[11] = tested on: morningglory; assay: Test C postemergence; assay type: in vivo, Ipomoea coccinea; settings: for Plant response rating, Morningglory: Postemergence
Outline: as §1

[12] = tested on: sedge, umbrella; assay: Test B flooded paddy test; assay type: in vivo, Cyperus difformis; settings: Flood, 250 g ai/ha; 0 to 100 scale where 0 is no effect and 100 is complete control
Outline: as §2

[13] = tested on: chickweed; assay: Test C postemergence; assay type: in vivo, Stellaria media; settings: for Chickweed plant response rating / Plant response rating (0 to 100), Chickweed: postemergence; for Chickweed plant response rating: visual rating; for Chickweed plant response rating / Plant response rating, Chickweed: scale 0 to 100 (0 no effect, 100 complete control); for Plant response rating, Chickweed: Postemergence
Outline: as §1

[14] = tested on: barnyardgrass; assay: Test A preemergence; assay type: in vivo, Echinochloa crus-galli; settings: for Barnyardgrass plant response rating: 0 to 100 scale, 0 no effect, 100 complete control, approx. 10 days
Outline: as §3

[15] = tested on: large (Lg) crabgrass; assay: Test C postemergence; assay type: in vivo, Digitaria sanguinalis; settings: for Crabgrass, Large plant response rating / Plant response rating (0 to 100), Crabgrass, Large: postemergence; for Crabgrass, Large plant response rating: visual rating; for Crabgrass, Large plant response rating / Plant response rating, Crabgrass, Large: scale 0 to 100 (0 no effect, 100 complete control); for Plant response rating, Crabgrass, Large: Postemergence
Outline: as §1

[16] = 31 g ai/ha, scale 0 to 100 (0 no effect, 100 complete control), 13 to 15 days
[17] = 62 g ai/ha, scale 0 to 100 (0 no effect, 100 complete control)
[18] = 125 g ai/ha, 0 to 100 scale where 0 is no effect and 100 is complete control
[19] = 500 g ai/ha, 0 to 100 scale where 0 is no effect and 100 is complete control
[20] = 8 g ai/ha, postemergence, 0 is no effect, 100 is complete control
[21] = 16 g ai/ha, postemergence, 0 is no effect, 100 is complete control
[22] = 31 g ai/ha, postemergence, visual rating, scale 0 to 100 (0 no effect, 100 complete control), 13 to 15 days
[23] = 62 g ai/ha, scale 0 to 100 (0 no effect, 100 complete control), 13 to 15 days
[24] = 8 g ai/ha, 0 is no effect, 100 is complete control
[25] = 16 g ai/ha, 0 is no effect, 100 is complete control
[26] = 1000 g ai/ha, 0 to 100 scale, 0 no effect, 100 complete control

For `Fc1cnc(Oc2cccc(C(F)F)c2-n2cc(Cl)cn2)nc1` [Compound 94], the “Plant response rating (0 to 100), Nutsedge, Yellow” value ([1]; 125 g ai/ha, postemergence) was 10, the “Plant response rating, Nutsedge, Yellow” value [1, 16] was 5 and the “Plant response rating, Nutsedge, Yellow” value [1, 17] was 45. For the same molecule, the “Plant response rating (0 to 100), Lambsquarters” value ([2]; 125 g ai/ha, postemergence) was 85, the “Plant response rating, Lambsquarters” value [2, 16] was 65 and the “Plant response rating, Lambsquarters” value [2, 17] was 75. The “Foxtail, Giant plant response rating” value ([3]; 16 g ai/ha, 13 to 15 days) was 10, the “Plant response rating (0 to 100), Foxtail, Giant” value ([3]; 125 g ai/ha) was 10 and the “Plant response rating, Foxtail, Giant” value ([3]; 31 g ai/ha, 13 to 15 days) was 10. The “Plant response rating, Foxtail, Giant” value ([3]; 62 g ai/ha) was 10, the “Plant response rating, Barnyardgrass” value [4] was 0 and the “Plant response rating, Barnyardgrass” value [5, 18] was 20. The “Plant response rating, Barnyardgrass” value [5, 19] was 90, the “Plant response rating, Rice” value [6] was 0 and the “Plant response rating, Pigweed” value [7, 18] was 100. For the same molecule, the “Plant response rating, Pigweed” value [7, 19] was 100, the “Barnyardgrass plant response rating” value ([8]; 16 g ai/ha, 13 to 15 days) was 10 and the “Plant response rating (0 to 100), Barnyardgrass” value ([8]; 125 g ai/ha) was 10. The “Plant response rating, Barnyardgrass” value ([8]; 31 g ai/ha, 13 to 15 days) was 10, the “Plant response rating, Barnyardgrass” value ([8]; 62 g ai/ha) was 10 and the “Plant response rating (0 to 100), Oat, Wild” value ([9]; 125 g ai/ha, postemergence) was 5. The “Plant response rating, Oat, Wild” value [9, 16] was 0, the “Plant response rating, Oat, Wild” value [9, 17] was 0 and the “Plant response rating, Crabgrass, Large” value [10, 18] was 100. For the same molecule, the “Crabgrass, Large plant response rating” value ([10]; 500 g ai/ha) was 100, the “Plant response rating (0 to 100), Morningglory” value ([11]; 125 g ai/ha, postemergence) was 55 and the “Plant response rating, Morningglory” value [11, 16] was 75. The “Plant response rating, Morningglory” value [11, 17] was 75, the “Plant response rating, Sedge, Umbrella” value [12] was 30 and the “Chickweed plant response rating” value ([13]; 16 g ai/ha, 13 to 15 days) was 10. The “Plant response rating (0 to 100), Chickweed” value ([13]; 125 g ai/ha) was 70, the “Plant response rating, Chickweed” value ([13]; 31 g ai/ha, 13 to 15 days) was 60 and the “Plant response rating, Chickweed” value ([13]; 62 g ai/ha) was 60. For the same molecule, the “Plant response rating, Barnyardgrass” value [14, 18] was 80, the “Barnyardgrass plant response rating” value ([14]; 500 g ai/ha) was 100 and the “Crabgrass, Large plant response rating” value ([15]; 16 g ai/ha, 13 to 15 days) was 5. The “Plant response rating (0 to 100), Crabgrass, Large” value ([15]; 125 g ai/ha) was 10, the “Plant response rating, Crabgrass, Large” value ([15]; 31 g ai/ha, 13 to 15 days) was 5 and the “Plant response rating, Crabgrass, Large” value ([15]; 62 g ai/ha) was 10.
`Clc1cnc(Oc2ccccc2-n2cc(I)nn2)nc1` [Compound 222] was tested, and the “Plant response rating (0 to 100), Nutsedge, Yellow” value [1, 20] was 0, the “Plant response rating (0 to 100), Nutsedge, Yellow” value [1, 21] was 5 and the “Nutsedge, Yellow plant response rating” value [1, 22] was 5. The “Plant response rating, Nutsedge, Yellow” value [1, 23] was 5, the “Plant response rating (0 to 100), Lambsquarters” value [2, 20] was 50 and the “Plant response rating (0 to 100), Lambsquarters” value [2, 21] was 65. The “Lambsquarters plant response rating” value [2, 22] was 65, the “Plant response rating, Lambsquarters” value [2, 23] was 75 and the “Plant response rating (0 to 100), Foxtail, Giant” value [3, 24] was 0. For the same molecule, the “Plant response rating (0 to 100), Foxtail, Giant” value [3, 25] was 5, the “Foxtail, Giant plant response rating” value ([3]; 31 g ai/ha, 13 to 15 days) was 5 and the “Plant response rating, Foxtail, Giant” value ([3]; 62 g ai/ha, 13 to 15 days) was 5. For the same molecule, the “Plant response rating, Barnyardgrass” value [4] was 0, the “Plant response rating, Barnyardgrass” value [5, 26] was 100 and the “Plant response rating, Rice” value [6] was 0. For the same molecule, the “Plant response rating, Pigweed” value [7, 26] was 100, the “Plant response rating (0 to 100), Barnyardgrass” value [8, 24] was 5 and the “Plant response rating (0 to 100), Barnyardgrass” value [8, 25] was 5. The “Barnyardgrass plant response rating” value ([8]; 31 g ai/ha, 13 to 15 days) was 10, the “Plant response rating, Barnyardgrass” value ([8]; 62 g ai/ha) was 15 and the “Plant response rating (0 to 100), Oat, Wild” value [9, 20] was 5. For the same molecule, the “Plant response rating (0 to 100), Oat, Wild” value [9, 21] was 10, the “Oat, Wild plant response rating” value [9, 22] was 10 and the “Plant response rating, Oat, Wild” value [9, 23] was 30. For the same molecule, the “Crabgrass, Large plant response rating” value ([10]; 1000 g ai/ha) was 100, the “Plant response rating (0 to 100), Morningglory” value [11, 20] was 40 and the “Plant response rating (0 to 100), Morningglory” value [11, 21] was 90. The “Morningglory plant response rating” value [11, 22] was 45, the “Plant response rating, Morningglory” value [11, 23] was 70 and the “Plant response rating, Sedge, Umbrella” value [12] was 70. For the same molecule, the “Plant response rating (0 to 100), Chickweed” value [13, 24] was 10, the “Plant response rating (0 to 100), Chickweed” value [13, 25] was 60 and the “Chickweed plant response rating” value ([13]; 31 g ai/ha, 13 to 15 days) was 85. For the same molecule, the “Plant response rating, Chickweed” value ([13]; 62 g ai/ha, 13 to 15 days) was 100, the “Barnyardgrass plant response rating” value ([14]; 1000 g ai/ha) was 100 and the “Plant response rating (0 to 100), Crabgrass, Large” value [15, 24] was 5. The “Plant response rating (0 to 100), Crabgrass, Large” value [15, 25] was 5, the “Crabgrass, Large plant response rating” value ([15]; 31 g ai/ha, 13 to 15 days) was 5 and the “Plant response rating, Crabgrass, Large” value ([15]; 62 g ai/ha, 13 to 15 days) was 5.
